What was measured:
Assay type in all cases: functional, Homo sapiens
Design in all cases: dose or concentration left out as unconfirmed
Colon cancer organoid [1] = test: Identification of compartment-specific drug sensitivities in O20 CRC organoid-stroma F20 CAF co-cultures. Organoid is transduced with Lucferase2-P2A-EGFP lentivirus, fibroblast with Renilla-dsRed lentivirus. Dual-Glo Luciferase assay is used to report viability data.
Colon cancer organoid [2] = test: Identification of compartment-specific drug sensitivities in O06 CRC organoid-stroma F06 CAF co-cultures. Organoid is transduced with Lucferase2-P2A-EGFP lentivirus, fibroblast with Renilla-dsRed lentivirus. Dual-Glo Luciferase assay is used to report viability data.
Colon cancer organoid [3] = test: Identification of compartment-specific drug sensitivities in O14 CRC organoid-stroma F14 CAF co-cultures. Organoid is transduced with Lucferase2-P2A-EGFP lentivirus, fibroblast with Renilla-dsRed lentivirus. Dual-Glo Luciferase assay is used to report viability data.
[4] = Transduced with Lucferase2-P2A-EGFP lentivirus
[5] = Transduced with Renilla-dsRed lentivirus

Compound | Cell Viability (Colon cancer organoid [1]; [4]) | Cell Viability (Colon cancer organoid [1]; [5]) | Cell Viability (Colon cancer organoid [2]; [4]) | Cell Viability (Colon cancer organoid [2]; [5]) | Cell Viability (Colon cancer organoid [3]; [4]) | Cell Viability (Colon cancer organoid [3]; [5])
Cn1nc(C(=O)NCc2ccc(C(=O)O)cc2)cc1-c1ccc2[nH]ccc2c1 [BI 4395] | 100.657% | 92.7545% | 119.737% | 69.3241% | 88.69% | 99.7693%
Cn1c(C2(NC(=O)c3ccc(NCC4CCCCC4)nc3)CCC2)nc2ccc(/C=C/C(=O)O)cc21 [BI 7656] | 93.1126% | 134.723% | 95.6503% | 130.646% | 93.219% | 83.8542%
C[C@@]1(Cc2ccc(C#N)cc2)C(=O)N(c2cc(Cl)cc(Cl)c2)c2ncc(C(=O)NC3(c4nc(C5CCC5)no4)CC3)n21 [BI 9446] | 72.3076% | 136.535% | 82.5213% | 98.3986% | 102.867% | 111.855%
CC(=O)N1CCC(c2ccc(C(=O)NC(=N)N)cc2C(F)(F)F)CC1 [BI 9627] | 96.0735% | 101.417% | 118.657% | 157.583% | 100.11% | 107.329%
CCC(=O)N[C@H]1CC[C@@H](C(=O)N(C)c2ccc(-c3nc4ccccc4o3)cc2)C1 [BI 99179] | 33.9891% | 149.12% | 14.7827% | 191.434% | 77.0742% | 106.772%
CCC(=O)N[C@@H]1CC[C@H](C(=O)N(C)c2ccc(-c3nc4ccccc4o3)cc2)C1 [BI 99990] | 115.817% | 121.154% | 102.864% | 119.997% | 98.8872% | 100.403%
CCS(=O)(=O)c1cc2cc(C[C@](O)(CC(C)(C)c3ccc(F)cc3C(N)=O)C(F)(F)F)[nH]c2cn1 [BI 653048] | 85.6205% | 287.465% | 70.4743% | 199.02% | 130.109% | 193.347%
CC[C@H](CC(=O)O)n1c(=O)c2ncccc2n(Cc2cn(C)c3cc(C)cc(C)c23)c1=O [BI-1942] | 108.303% | 100.799% | 119.907% | 136.619% | 102.331% | 109.089%
CC[C@@H]1C(=O)N(C)c2cnc(Nc3ccc(C(=O)NC4CCN(C)CC4)cc3OC)nc2N1C1CCCC1 [BI-2536] | 3.721% | 168.723% | 3.341% | 324.743% | 2.9466% | 167.188%
CN(C)C(=O)c1sc2nc(N3CCC(S(C)(=O)=O)CC3)cc(C(F)(F)F)c2c1N [BI-5026] | 83.1119% | 112.021% | 108.851% | 103.89% | 89.1429% | 109.835%
CCC(F)(F)c1cc(N2CCC(S(C)(=O)=O)CC2)nc2sc(C(N)=O)c(N)c12 [BI-605906] | 180.529% | 81.0914% | 93.6384% | 92.3898% | 95.5116% | 75.9837%
